Measured values as given in patent publication US12643871B2, “Aryl formamide compound containing chiral sulfur oxide or salt thereof, preparation method, herbicidal composition and use thereof” (Qingdao Kingagroot Chemical Compound Co., Ltd., priority 2019, dated 2026).

Columns and labels:
Type in all cases: in vivo
Amaranthus retroflexus = assay: Weeding effect in post-emergence stage; details: 250 g/ha; 2 leaf stage; 15 days after application; fresh weight control rate
Summary of the method: (§1)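 Reported levels reflect fresh weight growth control rate banded 0 (<5%) through 5 (>85%), averaged over three repetitions. Treatment: foliar spray of 2-leaf-stage greenhouse plants at 15 to 500 g/ha, with 1.5 liter/ha methyl oleate synergist; assessment 15 days after application.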

Digitaria sanguinalis = assay: Weeding effect in post-emergence stage; details: 250 g/ha; 2 leaf stage; 15 days after application; fresh weight control rate
Summary of the method: as §1

Abutilon theophrasti = assay: Weeding effect in post-emergence stage; details: 250 g/ha; 2 leaf stage; 15 days after application; fresh weight control rate
Summary of the method: as §1

Echinochloa crusgali = assay: Weeding effect in post-emergence stage; details: 250 g/ha; 2 leaf stage; 15 days after application; fresh weight control rate
Summary of the method: as §1

Setaria viridis = assay: Weeding effect in post-emergence stage; details: 250 g/ha; 2 leaf stage; 15 days after application; fresh weight control rate
Summary of the method: as §1

[1] = system: key weeds such as Digitaria sanguinalis, Leptochloa chinensis; assay: Comparison experiment (post-emergence, Tables 4-7), herbicidal activity on weeds not listed separately
Excerpt: The above growth control rates are fresh weight control rates.
Experiment on weeding effect in post-emergence stage: monocotyledonous and dicotyledonous weed seeds (Descurainia sophia, Capsella bursa-pastoris, Galium aparine, Stellaria media, Lithospermum arvense, Rorippa indica, Alopecurus aequalis, Beckmannia syzigachne, Sclerochloa dura, Phleum paniculatum, Bromus japonicus, Aegilops tauschii, Phalaris arundinacea, Amaranthus retroflexus, Chenopodiaceae, Commelina communis, Sonchus arvensis, convolvulus arvensis, Cirsium setosum, Solanum nigrum, Acalypha australis, Digitaria sanguinalis, Echinochloa crusgalli, Setaria viridis, Setaria glauca, Leptochloa chinensis, Monochoria vaginalis, Sagittaria trifolia, Scirpus juncoides, Cyperus rotundus, Cyperus iria, Cyperus difformis, Fimbristylis, Portulaca oleracea, Xanthium sibiricum, Pharbitis nil) and major crop seeds (wheat, corn, rice, soybean, cotton, oilseed rape, millet, sorghum, potato, sesame, ricinus) were placed in plastic pots filled with soil, then covered with 0.5-2 cm of soil, allowed to grow in a good greenhouse environment. After 2 weeks of sowing, the test plants were treated in the 2 leaf stage. The tested compounds of the present invention were respectively dissolved in acetone, then added with Tween 80 and 1.5 liter/ha of emulsifiable concentrate of methyl oleate as synergist, diluted with a certain amount of water to obtain a solution with a certain concentration, and sprayed with a spray tower onto the plants. After the application, the plants were cultured for 15 days in the greenhouse, and then the experimental results of the weeding were counted. The doses of the used compounds were 500, 250, 125, 60, 30, 15 g/ha, and the averages were obtained by repeating for three times.
If there is no clear marker, the post-seedling test conditions are the same as above, and the experimental results are shown in Tables 4-7.

[2] = doses of 125, 60, 30, 15 g/ha, X replaced by other five membered rings

| Structure (SMILES) | weeding effect in post-emergence stage, activity level (growth control rate), Amaranthus retroflexus (Amaranthus retroflexus) | weeding effect in post-emergence stage, activity level (growth control rate), Digitaria sanguinalis (Digitaria sanguinalis) | weeding effect in post-emergence stage, activity level (growth control rate), Abutilon theophrasti (Abutilon theophrasti) | weeding effect in post-emergence stage, activity level (growth control rate), Echinochloa crusgali (Echinochloa crusgali) | weeding effect in post-emergence stage, activity level (growth control rate), Setaria viridis (Setaria viridis) | herbicidal activity and/or crop safety compared with the corresponding racemate or S configuration ([1]; no dose stated) | herbicidal activity and/or crop safety compared with the corresponding racemate or S configuration [1, 2] | herbicidal activity and/or crop safety compared with the corresponding racemate or S configuration ([1]; dose of 120, 48, 30, 24 g/ha) |
| --- | --- | --- | --- | --- | --- | --- | --- | --- |
| C=CC[S@@+]([O-])c1c(C(F)(F)F)ccc(C(=O)Nc2nnc(C)o2)c1OC [Compound 311] | 5 (Level 5: growth control rate is above 85%) | 5 (Level 5: growth control rate is above 85%) | 5 (Level 5: growth control rate is above 85%) | 5 (Level 5: growth control rate is above 85%) | 5 (Level 5: growth control rate is above 85%) | better herbicidal activity and/or crop safety | – | – |
| CCCC[S@@+]([O-])c1c(C(F)(F)F)ccc(C(=O)Nc2nnc(C)o2)c1OC [Compound 308] | 5 (Level 5: growth control rate is above 85%) | 5 (Level 5: growth control rate is above 85%) | 5 (Level 5: growth control rate is above 85%) | 5 (Level 5: growth control rate is above 85%) | 5 (Level 5: growth control rate is above 85%) | better herbicidal activity and/or crop safety | – | – |
| CCC[S@@+]([O-])c1c(C(F)F)ccc(C(=O)Nc2nnnn2C)c1F [Compound 856] | 5 (Level 5: growth control rate is above 85%) | 5 (Level 5: growth control rate is above 85%) | 5 (Level 5: growth control rate is above 85%) | 5 (Level 5: growth control rate is above 85%) | 5 (Level 5: growth control rate is above 85%) | – | better herbicidal activity and/or crop safety | – |
| CC[S@@+]([O-])c1c(C(F)(F)F)ccc(C(=O)Nc2nnc(C)o2)c1OC [Compound 306] | 5 (Level 5: growth control rate is above 85%) | 5 (Level 5: growth control rate is above 85%) | 5 (Level 5: growth control rate is above 85%) | 5 (Level 5: growth control rate is above 85%) | 5 (Level 5: growth control rate is above 85%) | better herbicidal activity and/or crop safety | – | – |
| CCC[S@@+]([O-])c1c(C(F)F)ccc(C(=O)Nc2nnc(C)o2)c1SC [Compound 865] | 5 (Level 5: growth control rate is above 85%) | 5 (Level 5: growth control rate is above 85%) | 5 (Level 5: growth control rate is above 85%) | 5 (Level 5: growth control rate is above 85%) | 5 (Level 5: growth control rate is above 85%) | – | – | better herbicidal activity and/or crop safety |
| CCC[S@@+]([O-])c1c(C(F)(F)F)ccc(C(=O)Nc2nnc(C)o2)c1SCC [Compound 569] | 5 (Level 5: growth control rate is above 85%) | 5 (Level 5: growth control rate is above 85%) | 5 (Level 5: growth control rate is above 85%) | 5 (Level 5: growth control rate is above 85%) | 5 (Level 5: growth control rate is above 85%) | – | – | better herbicidal activity and/or crop safety |
| CCC[S@@+]([O-])c1c(C(F)(F)F)ccc(C(=O)Nc2nnnn2C)c1F [Compound 379] | 5 (Level 5: growth control rate is above 85%) | 5 (Level 5: growth control rate is above 85%) | 5 (Level 5: growth control rate is above 85%) | 5 (Level 5: growth control rate is above 85%) | 5 (Level 5: growth control rate is above 85%) | – | better herbicidal activity and/or crop safety | – |
| CCCC[S@@+]([O-])c1c(C(F)(F)F)ccc(C(=O)Nc2nnc(C)o2)c1SC [Compound 550] | 5 (Level 5: growth control rate is above 85%) | 5 (Level 5: growth control rate is above 85%) | 5 (Level 5: growth control rate is above 85%) | 5 (Level 5: growth control rate is above 85%) | 5 (Level 5: growth control rate is above 85%) | – | – | better herbicidal activity and/or crop safety |
| COc1c(C(=O)Nc2nnc(C)o2)ccc(C(F)(F)F)c1[S@+]([O-])CCON=C(C)C [Compound 348] | 5 (Level 5: growth control rate is above 85%) | 5 (Level 5: growth control rate is above 85%) | 5 (Level 5: growth control rate is above 85%) | 5 (Level 5: growth control rate is above 85%) | 5 (Level 5: growth control rate is above 85%) | better herbicidal activity and/or crop safety | – | – |
| CC(C)C[S@@+]([O-])c1c(C(F)(F)F)ccc(C(=O)Nc2nnnn2C)c1F [Compound 380] | 5 (Level 5: growth control rate is above 85%) | 5 (Level 5: growth control rate is above 85%) | 5 (Level 5: growth control rate is above 85%) | 5 (Level 5: growth control rate is above 85%) | 5 (Level 5: growth control rate is above 85%) | – | better herbicidal activity and/or crop safety | – |
| COc1c(C(=O)Nc2nnc(C)o2)ccc(C(F)(F)F)c1[S@+]([O-])CC(C)F (some centres unmarked) [Compound 321] | 5 (Level 5: growth control rate is above 85%) | 5 (Level 5: growth control rate is above 85%) | 5 (Level 5: growth control rate is above 85%) | 5 (Level 5: growth control rate is above 85%) | 5 (Level 5: growth control rate is above 85%) | better herbicidal activity and/or crop safety | – | – |
| CSc1c(C(=O)Nc2nnc(C)o2)ccc(C(F)(F)F)c1[S@+]([O-])C(C)C [Compound 549] | 5 (Level 5: growth control rate is above 85%) | 5 (Level 5: growth control rate is above 85%) | 5 (Level 5: growth control rate is above 85%) | 5 (Level 5: growth control rate is above 85%) | – | – | – | better herbicidal activity and/or crop safety |
